Experimental data from patent publication US10369153B2, “Pyrrolopyrimidine compounds and uses thereof” (HUTCHISON MEDIPHARMA LIMITED, priority 2010, dated 2019).

Columns and labels:
[1] = target: Recombinant human JAK1 catalytic domain (Homo sapiens (Human), UniProt P23458); experiment: JAK1 kinase assay (Z'-LYTE, Tyr 6 Peptide); assay type: biochemical; settings: 0.3 uM concentration, read-out: inhibition percentage (IR %)
Description: JAK1/2/3 kinase assay are performed in vitro using Kit-Tyr 6 Peptide (Invitrogen, Cat. No. PV4122). TYK2 kinase assay are performed in vitro using Z′-LYTE™ Kinase Assay Kit-Tyr 3 Peptide (Invitrogen, Cat. No. PV3192). […] All compounds are initially tested at 8 different concentrations (1 μM down to 0.0003 μM) using a 1:3 serial dilution scheme.

[2] = tested on: IL-6-induced STAT3 phosphorylation; experiment: IL-6-induced STAT3 phosphorylation in HepG2 cells; assay type: cell-based; settings: Homo sapiens, IL-6 stimulation, read-out: pSTAT3 IC50
Description: For the determination of IL-6-induced STAT3 phosphorylation, HepG2 cells (SIBS) are seeded in 96 well plates at 5.4×10^3 cells per well in Serum Free DMEM media overnight and incubated in the presence or absence of various concentrations of diluted compound for 30 min at 37° C., 5% CO2. Cells were stimulated by adding 10 ng/ml human recombinant IL-6 to each well for 15 minutes at 37° C., 5% CO2. Cells are then fixed in 2% paraformaldehyde for 45 minutes at room temperature and incubated in ice-cold methanol for 30 minutes. After washing in PBS, cells are incubated with rabbit anti-phospho-STAT3 (Y705) (Cell Signaling Technologies, 1:1000 in antibody dilution solution) primary antibody overnight at 4° C. Goat anti-rabbit IgG Alexa 488 (Invitrogen, 1:1,000 dilution in PBS) secondary antibody is added for 90 minutes prior to PBS washes. Cells are counted following incubation in a 7.5 uM propidium iodide, 100 μg/ml RNaseA, PBS solution for 60 minutes in the dark. Plates are read on an Acumen X3 instrument (TPP Labtech).
(§1) Percent inhibition is calculated using the following formula: Inhibition (%)=100−((inhibitor treatment−cell)/(stimulator−cell))×100 […]

[3] = tested on: IL-3-induced STAT5 phosphorylation; experiment: IL-3-induced STAT5 phosphorylation in TF-1 cells; assay type: cell-based; settings: Homo sapiens, IL-3 stimulation, read-out: pSTAT5 IC50
Description: For the determination of IL-3-induced STAT5 phosphorylation, TF-1 cells (ATCC) are plated in 96 well plates at 1×10^4 cells per well in 10% FBS RPMI-1640 media at 37° C., 5% CO2 for 3 hours. Cells were incubated in the presence or absence of various concentrations of diluted compound for 30 min at 37° C., 5% CO2. Cells were stimulated by adding 10 ng/ml human recombinant IL-3 to each well for 30 minutes at 37° C., 5% CO2. Cells are then fixed in 2% paraformaldehyde for 45 minutes at room temperature and incubated in ice-cold methanol for 30 minutes. After washing in PBS, cells are incubated with rabbit anti-phospho-STAT5 (Y694) (Cell Signaling Technologies, 1:1000 in antibody dilution solution) primary antibody overnight at 4° C. Goat anti-rabbit IgG Alexa 488 (Invitrogen, 1:1,000 dilution in PBS) secondary antibody is added for 90 minutes prior to PBS washes. Cells are counted following incubation in a 7.5 uM propidium iodide, 100 μg/ml RNaseA, PBS solution for 60 minutes in the dark. Plates are read on an Acumen X3 instrument (TPP Labtech).
as §1

Recombinant human JAK1 catalytic domain, sequence (P23458 875-1153): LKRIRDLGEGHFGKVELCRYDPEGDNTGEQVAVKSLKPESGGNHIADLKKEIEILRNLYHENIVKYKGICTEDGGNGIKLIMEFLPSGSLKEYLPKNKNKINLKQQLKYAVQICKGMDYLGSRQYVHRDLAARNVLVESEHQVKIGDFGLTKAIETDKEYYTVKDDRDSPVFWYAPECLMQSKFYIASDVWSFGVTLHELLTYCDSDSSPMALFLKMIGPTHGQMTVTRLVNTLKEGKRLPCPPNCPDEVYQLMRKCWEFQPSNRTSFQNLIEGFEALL

| inhibition at 0.3 µM [1] [%] | IC50 [2] [µM] | IC50 [3] [µM] | Structure (SMILES) |
| --- | --- | --- | --- |
| 50 to 100 |  |  | CN(c1ccc(C(=O)N[C@@H](CO)c2ccccc2)cn1)[C@@H]1CCN(c2ncnc3[nH]ccc23)C1 [Compound 176] |
| 20 to 50 |  |  | CN(C(=O)c1ccc(N(C)[C@@H]2CCN(c3ncnc4[nH]ccc34)C2)nc1)[C@@H](CO)c1ccccc1 [Compound 200] |
| 50 to 100 | 0.05 | 7.55 | CN(c1ccc(C(=O)Nc2nccs2)cn1)[C@@H]1CCN(c2ncnc3[nH]ccc23)C1 [Compound 199] |
